Source: patent publication US8653041B2, “Antibacterial aminoglycoside analogs” (Achaogen, Inc., priority 2010, dated 2014)

How the values were obtained:
[1] = 14-day rat toxicology (nephrotoxicity), once-daily subcutaneous injection; settings: once daily, 14 days, Sprague-Dawley rat
Protocol: The study design utilized once-daily subcutaneous injection administration to the rat for 14 days and assessment of reversibility of any changes following a 28-day recovery period.
The dose volume administered to each animal was 1 mL/kg.

[2] = system: Acinetobacter baumannii; assay: MIC, CLSI broth microdilution, Acinetobacter baumannii panel; format: cell-based
Protocol: (§1) Minimum inhibitory concentrations (MIC) were determined by reference Clinical and Laboratory Standards Institute (CLSI) broth microdilution methods per M7-A7 [2006]. Quality control ranges utilizing E. coli ATCC 25922, P. aeruginosa ATCC 27853 and S. aureus ATCC 29213, and interpretive criteria for comparator agents were as published in CLSI M100-S17 [2007]. Briefly, serial two-fold dilutions of the test compounds were prepared at 2× concentration in Mueller Hinton Broth. The compound dilutions were mixed in 96-well assay plates in a 1:1 ratio with bacterial inoculum. The inoculum was prepared by suspension of a colony from an agar plate that was prepared the previous day. Bacteria were suspended in sterile saline and added to each assay plate to obtain a final concentration of 5×10^5 CFU/mL. The plates were incubated at 35 C for 20 hours in ambient air.
The MIC panel presented in Table 2 contains 29 isolates of Acinetobacter baumannii: strains 1-24 are clinical isolates from around the world collected between 2004-2007 which contain representative resistance mechanisms commonly found in Acinetobacter baumannii, such as AAC(3)-I and II, AAC(6′)-I, ANT(2″)-I, APH(3′)-VI, and perm/efflux; strains 25-29 are susceptible.

[3] = system: Pseudomonas aeruginosa; assay: MIC, CLSI broth microdilution, Pseudomonas aeruginosa panel; format: cell-based
Protocol: as §1
The MIC panel presented in Table 1 contains 27 isolates of Pseudomonas aeruginosa: strains 1-22 are clinical isolates from around the world collected between 2004-2007 which contain representative resistance mechanisms commonly found in Pseudomonas, such as the AAC(6′)-I, AAC(6′)-II, APH(3′)-IIb, ANT(2″)-I, and perm/efflux; strains 23-27 are susceptible.

With gentamicin the mortality and morbidity ([1]; 100 mg/kg/day subcutaneous) was “resulted in mortality and morbidity at 100 mg/kg/day due to nephrotoxicity”, the “macroscopic and microscopic changes in the kidneys” value ([1]; all dose levels (10, 30 or 100 mg/kg/day) subcutaneous) was “observed at all dose levels” and the MIC ([2]; A. baumannii clinical strain 1 (resistant clinical isolate)) was “E (MIC's greater than or equal to 32.0 μg/mL = E)”. For the same substance, the MIC ([2]; A. baumannii clinical strain 2 (resistant clinical isolate)) was “E (MIC's greater than or equal to 32.0 μg/mL = E)”, the MIC ([2]; A. baumannii clinical strain 3 (resistant clinical isolate)) was “C (MIC's greater than or equal to 8 μg/mL and lower than 16.0 μg/mL = C)” and the MIC ([2]; A. baumannii clinical strain 4 (resistant clinical isolate)) was “E (MIC's greater than or equal to 32.0 μg/mL = E)”. For the same substance, the MIC ([2]; A. baumannii clinical strain 5 (resistant clinical isolate)) was “E (MIC's greater than or equal to 32.0 μg/mL = E)”, the MIC ([2]; A. baumannii clinical strain 6 (resistant clinical isolate)) was “E (MIC's greater than or equal to 32.0 μg/mL = E)” and the MIC ([2]; A. baumannii clinical strain 7 (resistant clinical isolate)) was “E (MIC's greater than or equal to 32.0 μg/mL = E)”. The MIC ([2]; A. baumannii clinical strain 8 (resistant clinical isolate)) was “E (MIC's greater than or equal to 32.0 μg/mL = E)”, the MIC ([2]; A. baumannii clinical strain 9 (resistant clinical isolate)) was “E (MIC's greater than or equal to 32.0 μg/mL = E)” and the MIC ([2]; A. baumannii clinical strain 10 (resistant clinical isolate)) was “E (MIC's greater than or equal to 32.0 μg/mL = E)”. The MIC ([2]; A. baumannii clinical strain 11 (resistant clinical isolate)) was “E (MIC's greater than or equal to 32.0 μg/mL = E)”, the MIC ([2]; A. baumannii clinical strain 12 (resistant clinical isolate)) was “E (MIC's greater than or equal to 32.0 μg/mL = E)” and the MIC ([2]; A. baumannii clinical strain 13 (resistant clinical isolate)) was “A (MIC's of 1.0 μg/mL or less = A)”. The MIC ([2]; A. baumannii clinical strain 14 (resistant clinical isolate)) was “B (MIC's of greater than 1.0 μg/mL and lower than 8 μg/mL = B)”, the MIC ([2]; A. baumannii clinical strain 15 (resistant clinical isolate)) was “A (MIC's of 1.0 μg/mL or less = A)” and the MIC ([2]; A. baumannii clinical strain 16 (resistant clinical isolate)) was “B (MIC's of greater than 1.0 μg/mL and lower than 8 μg/mL = B)”. For the same substance, the MIC ([2]; A. baumannii clinical strain 17 (resistant clinical isolate)) was “E (MIC's greater than or equal to 32.0 μg/mL = E)”, the MIC ([2]; A. baumannii clinical strain 18 (resistant clinical isolate)) was “E (MIC's greater than or equal to 32.0 μg/mL = E)” and the MIC ([2]; A. baumannii clinical strain 19 (resistant clinical isolate)) was “B (MIC's of greater than 1.0 μg/mL and lower than 8 μg/mL = B)”. For the same substance, the MIC ([2]; A. baumannii clinical strain 20 (resistant clinical isolate)) was “C (MIC's greater than or equal to 8 μg/mL and lower than 16.0 μg/mL = C)”, the MIC ([2]; A. baumannii clinical strain 21 (resistant clinical isolate)) was “E (MIC's greater than or equal to 32.0 μg/mL = E)” and the MIC ([2]; A. baumannii clinical strain 22 (resistant clinical isolate)) was “E (MIC's greater than or equal to 32.0 μg/mL = E)”. The MIC ([2]; A. baumannii clinical strain 23 (resistant clinical isolate)) was “E (MIC's greater than or equal to 32.0 μg/mL = E)”, the MIC ([2]; A. baumannii clinical strain 24 (resistant clinical isolate)) was “E (MIC's greater than or equal to 32.0 μg/mL = E)” and the MIC ([2]; A. baumannii strain 25 (susceptible)) was “A (MIC's of 1.0 μg/mL or less = A)”. The MIC ([2]; A. baumannii strain 26 (susceptible)) was “A (MIC's of 1.0 μg/mL or less = A)”, the MIC ([2]; A. baumannii strain 27 (susceptible)) was “A (MIC's of 1.0 μg/mL or less = A)” and the MIC ([2]; A. baumannii strain 28 (susceptible)) was “A (MIC's of 1.0 μg/mL or less = A)”. For the same substance, the MIC ([2]; A. baumannii strain 29 (susceptible)) was “A (MIC's of 1.0 μg/mL or less = A)”, the MIC ([3]; P. aeruginosa clinical strain 1 (resistant clinical isolate)) was “D (MIC's greater than or equal to 16.0 μg/mL and lower than 32 μg/mL = D)” and the MIC ([3]; P. aeruginosa clinical strain 2 (resistant clinical isolate)) was “E (MIC's greater than or equal to 32.0 μg/mL = E)”. For the same substance, the MIC ([3]; P. aeruginosa clinical strain 3 (resistant clinical isolate)) was “E (MIC's greater than or equal to 32.0 μg/mL = E)”, the MIC ([3]; P. aeruginosa clinical strain 4 (resistant clinical isolate)) was “E (MIC's greater than or equal to 32.0 μg/mL = E)” and the MIC ([3]; P. aeruginosa clinical strain 5 (resistant clinical isolate)) was “E (MIC's greater than or equal to 32.0 μg/mL = E)”. The MIC ([3]; P. aeruginosa clinical strain 6 (resistant clinical isolate)) was “E (MIC's greater than or equal to 32.0 μg/mL = E)”, the MIC ([3]; P. aeruginosa clinical strain 7 (resistant clinical isolate)) was “E (MIC's greater than or equal to 32.0 μg/mL = E)” and the MIC ([3]; P. aeruginosa clinical strain 8 (resistant clinical isolate)) was “E (MIC's greater than or equal to 32.0 μg/mL = E)”. For the same substance, the MIC ([3]; P. aeruginosa clinical strain 9 (resistant clinical isolate)) was “E (MIC's greater than or equal to 32.0 μg/mL = E)”, the MIC ([3]; P. aeruginosa clinical strain 10 (resistant clinical isolate)) was “E (MIC's greater than or equal to 32.0 μg/mL = E)” and the MIC ([3]; P. aeruginosa clinical strain 11 (resistant clinical isolate)) was “D (MIC's greater than or equal to 16.0 μg/mL and lower than 32 μg/mL = D)”. The MIC ([3]; P. aeruginosa clinical strain 12 (resistant clinical isolate)) was “E (MIC's greater than or equal to 32.0 μg/mL = E)”, the MIC ([3]; P. aeruginosa clinical strain 13 (resistant clinical isolate)) was “E (MIC's greater than or equal to 32.0 μg/mL = E)” and the MIC ([3]; P. aeruginosa clinical strain 14 (resistant clinical isolate)) was “E (MIC's greater than or equal to 32.0 μg/mL = E)”. For the same substance, the MIC ([3]; P. aeruginosa clinical strain 15 (resistant clinical isolate)) was “E (MIC's greater than or equal to 32.0 μg/mL = E)”, the MIC ([3]; P. aeruginosa clinical strain 16 (resistant clinical isolate)) was “E (MIC's greater than or equal to 32.0 μg/mL = E)” and the MIC ([3]; P. aeruginosa clinical strain 17 (resistant clinical isolate)) was “E (MIC's greater than or equal to 32.0 μg/mL = E)”. For the same substance, the MIC ([3]; P. aeruginosa clinical strain 18 (resistant clinical isolate)) was “E (MIC's greater than or equal to 32.0 μg/mL = E)”, the MIC ([3]; P. aeruginosa clinical strain 19 (resistant clinical isolate)) was “E (MIC's greater than or equal to 32.0 μg/mL = E)” and the MIC ([3]; P. aeruginosa clinical strain 20 (resistant clinical isolate)) was “C (MIC's greater than or equal to 8 μg/mL and lower than 16.0 μg/mL = C)”. The MIC ([3]; P. aeruginosa clinical strain 21 (resistant clinical isolate)) was “C (MIC's greater than or equal to 8 μg/mL and lower than 16.0 μg/mL = C)”, the MIC ([3]; P. aeruginosa clinical strain 22 (resistant clinical isolate)) was “B (MIC's of greater than 1.0 μg/mL and lower than 8 μg/mL = B)” and the MIC ([3]; P. aeruginosa strain 23 (susceptible)) was “A (MIC's of 1.0 μg/mL or less = A)”. The MIC ([3]; P. aeruginosa strain 24 (susceptible)) was “B (MIC's of greater than 1.0 μg/mL and lower than 8 μg/mL = B)”, the MIC ([3]; P. aeruginosa strain 25 (susceptible)) was “A (MIC's of 1.0 μg/mL or less = A)” and the MIC ([3]; P. aeruginosa strain 26 (susceptible)) was “A (MIC's of 1.0 μg/mL or less = A)”. For the same substance, the MIC ([3]; P. aeruginosa strain 27 (susceptible)) was “A (MIC's of 1.0 μg/mL or less = A)”.
